# Source: US5225531A, “Hexapeptide Lys Gly Ala Gly Asp Val” (Washington University, priority 1992, dated 1993)
# No end group written: not given here.
# System: human platelet rich plasma
# Assay type: cell-based
# Procedure: Platelet aggregation assay--Aggregation studies using human platelet rich plasma were performed as previously described (20). Briefly, blood from human volunteers who had not taken any antiplatelet drugs in the previous two weeks was collected into 1/10th volume of CCD buffer (100 mM sodium citrate, 136 mM glucose, pH 6.5). The blood was centrifuged for 3 min at 1000×g and the platelet rich plasma (PRP) was transferred to a plastic tube with a plastic pipet. The PRP was adjusted to 2×10^8 platelets/ml with platelet poor plasma (prepared by centrifuging anti-coagulated blood at 2000×g for 15 min) and placed on ice. PRP and control (saline) or test peptides (500 μl) were incubated with 5 μM ADP at 37° C. in a silanized glass cuvette with stirring (900 RPM). The extent of aggregation was monitored with a Payton aggregometer 2 min after the addition of ADP. Inhibition of aggregation for each sample was determined using the following formula: % Inhibition=[…], where Tbase =% of light transmission in PRP, Tagg =% of light transmission in the aggregated PRP sample containing the saline control for peptides, and Tpep =% of light transmission in the aggregated PRP sample containing the peptide inhibitor.
sequence,measurement,value
HHLGGAKGAGDV,Platelet ID50 (inhibition of platelet aggregation),> 100 µM
